In the test the target is T1, HMG-CoA reductase (Rattus norvegicus, UniProt P51639).
T1 sequence (P51639 1-887): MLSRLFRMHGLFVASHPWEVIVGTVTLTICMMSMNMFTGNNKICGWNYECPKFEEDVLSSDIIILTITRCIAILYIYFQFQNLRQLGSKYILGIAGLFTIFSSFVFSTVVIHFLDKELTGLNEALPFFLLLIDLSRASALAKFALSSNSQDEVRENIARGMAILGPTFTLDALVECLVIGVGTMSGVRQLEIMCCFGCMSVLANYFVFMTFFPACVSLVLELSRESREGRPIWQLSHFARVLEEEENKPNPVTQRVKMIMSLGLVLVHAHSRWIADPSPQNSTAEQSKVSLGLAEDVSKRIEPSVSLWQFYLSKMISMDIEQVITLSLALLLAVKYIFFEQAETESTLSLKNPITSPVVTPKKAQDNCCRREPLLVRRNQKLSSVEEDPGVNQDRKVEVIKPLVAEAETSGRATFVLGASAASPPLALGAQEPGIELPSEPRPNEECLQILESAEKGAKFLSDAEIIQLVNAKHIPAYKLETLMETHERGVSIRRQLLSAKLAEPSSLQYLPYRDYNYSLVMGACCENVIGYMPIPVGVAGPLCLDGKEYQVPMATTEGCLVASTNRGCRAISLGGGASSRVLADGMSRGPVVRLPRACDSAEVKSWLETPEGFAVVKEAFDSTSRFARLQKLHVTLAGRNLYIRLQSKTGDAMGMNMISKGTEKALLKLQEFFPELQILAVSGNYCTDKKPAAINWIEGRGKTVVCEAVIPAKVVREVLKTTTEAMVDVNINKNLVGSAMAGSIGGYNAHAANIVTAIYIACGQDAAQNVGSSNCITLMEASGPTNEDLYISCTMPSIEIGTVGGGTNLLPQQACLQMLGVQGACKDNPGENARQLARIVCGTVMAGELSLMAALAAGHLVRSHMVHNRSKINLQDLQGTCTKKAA
In words: intrinsic HMG-CoA reductase inhibition, published in vitro protocol (J. Med. Chem., 28, p. 347-358 (1985)). The format is biochemical. Conditions: IC50 of test compound compared with that of compactin (mevastatin) determined simultaneously; compactin assigned a value of 100. The protocol: The intrinsic HMG-CoA reductase inhibition activity of the claimed compounds is measured in the in vitro protocol published in J. Med. Chem., 28, p. 347-358 (1985). […] Representative of the intrinsic HMG-CoA reductase inhibitory activities of the claimed compounds are the following relative potencies for compounds of formula (I).

The structures appear in SMILES notation.

For the compound `CCC(C)(C)C(=O)O[C@H]1[C@@H](O)[C@@H](C)C=C2C=C[C@H](C)[C@H](CC[C@@H]3C[C@@H](O)CC(=O)O3)[C@H]21` [6(R)-[2-[8(R)-(2,2-dimethylbutyryloxy)-2(S)-methyl-6(S)-methyl-7(S)-hydroxy-1,2,6,7,8,8a(R)-hexahydronaphthyl-1(S)]ethyl]-4(R)-hydroxy-3,4,5,6-tetrahydro-2H-pyran-2-one], the “Relative Potency (Compactin = 100)” value is reported as 214. To `CCC(C)(C)C(=O)O[C@@H]1[C@H]2C(=C[C@H](C)[C@H]1[C@H](C)O)C=C[C@H](C)[C@@H]2CC[C@@H]1C[C@@H](O)CC(=O)O1` [6R-[2-[8(R)-(2,2-dimethylbutyryloxy)-2(S)-methyl-6(S)-methyl-7(S)-(1(S)-hydroxyethyl)-1,2,6,7,8,8a(R)-hexahydronaphthyl-1(S)]ethyl]-4(R)-hydroxy-3,4,5,6-tetrahydro-2H-pyran-2-one] belongs 350; to `CCC(C)(C)C(=O)O[C@H]1[C@H](C)[C@@H](C)C=C2C=C[C@H](C)[C@H](CC[C@@H]3C[C@@H](O)CC(=O)O3)[C@H]21` [6(R)-[2-[8(R)-(2,2-dimethylbutyryloxy)-2(S)-methyl-6(S)-methyl-7(R)-methyl-1,2,6,7,8,8a(R)-hexahydronaphthyl-1(S)]ethyl]-4(R)-hydroxy-3,4,5,6-tetrahydro-2H-pyran-2-one], 174. For `CCC(C)(C)C(=O)O[C@@H]1[C@H]2C(=C[C@H](C)[C@H]1[C@@H](C)O)C=C[C@H](C)[C@@H]2CC[C@@H]1C[C@@H](O)CC(=O)O1` [6R-[2-[8(R)-(2,2-dimethylbutyryloxy)-2(S)-methyl-6(S)-methyl-7(S)-(1(R)-hydroxyethyl)-1,2,6,7,8,8a(R)-hexahydronaphthyl-1(S)]ethyl]-4(R)-hydroxy-3,4,5,6-tetrahydro-2H-pyran-2-one] the value was 124. `CCC(C)(C)C(=O)O[C@H]1[C@H](CO)[C@@H](C)C=C2C=C[C@H](C)[C@H](CC[C@@H]3C[C@@H](O)CC(=O)O3)[C@H]21` [6(R)-[2-[8(R)-(2,2-dimethylbutyryloxy)-2(S)-methyl-6(S)-methyl-7(S)-hydroxymethyl-1,2,6,7,8,8a(R)-hexahydronaphthyl-1(S)]ethyl]-4(R)-hydroxy-3,4,5,6-tetrahydro-2H-pyran-2-one]: the “Relative Potency (Compactin = 100)” value is 262. To `CCC(C)(C)C(=O)O[C@@H]1[C@H]2C(=C[C@H](C)[C@H]1[C@H](O)c1ccccc1)C=C[C@H](C)[C@@H]2CC[C@@H]1C[C@@H](O)CC(=O)O1` [6R-[2-[8(R)-(2,2-dimethylbutyryloxy)-2(S)-methyl-6(S)-methyl-7(S)-(1(S)-hydroxybenzyl)-1,2,6,7,8,8a(R)-hexahydronaphthyl-1(S)]-ethyl]-4(R)-hydroxy-3,4,5,6-tetrahydro-2H-pyran-2-one] belongs 137.
